Laboratory results published in ChEMBL document CHEMBL3804787, “Electrophilic Oxidation and [1,2]-Rearrangement of the Biindole Core of Birinapant” (ACS Med Chem Lett, 2016).

How the values were obtained:
[1] = Drug level using Birinapant assessed as compound formation by HPLC analysis; assay type: physicochemical
[2] = Drug degradation of the compound at 40 degC/75% RH measured after 1 year by HPLC analysis; assay type: physicochemical; conditions: read-out: Drug degradation

Drug metabolism [1]	degraded at 8766 h [2] [%]	Compound
metabolite_detected		CC[C@H](NC(=O)[C@H](C)NC)C(=O)N1C[C@@H](O)C[C@H]1Cc1c([C@@]2(C[C@@H]3C[C@H](O)CN3C(=O)[C@H](CC)NC(=O)[C@H](C)NC)Nc3cc(F)ccc3C2=O)[nH]c2cc(F)ccc12
metabolite_detected		CC[C@H](NC(=O)[C@H](C)NC)C(=O)N1C[C@@H](O)C[C@H]1C[C@]1(O)C(c2[nH]c3cc(F)ccc3c2C[C@H]2C[C@@H](O)CN2C(=O)[C@@H](CC)NC(=O)[C@@H](C)NC)=Nc2cc(F)ccc21
	> 0.1	CC[C@H](NC(=O)[C@H](C)NC)C(=O)N1C[C@@H](O)C[C@H]1Cc1c(-c2[nH]c3cc(F)ccc3c2C[C@@H]2C[C@H](O)CN2C(=O)[C@H](CC)NC(=O)[C@H](C)NC)[nH]c2cc(F)ccc12 [BIRINAPANT]
metabolite_detected		CC[C@H](NC(=O)[C@H](C)NC)C(=O)N1C[C@@H](O)C[C@H]1Cc1c([C@]2(C[C@@H]3C[C@H](O)CN3C(=O)[C@H](CC)NC(=O)[C@H](C)NC)Nc3cc(F)ccc3C2=O)[nH]c2cc(F)ccc12
metabolite_detected		CC[C@H](NC(=O)[C@H](C)NC)C(=O)N1C[C@@H](O)C[C@H]1C[C@@]1(O)C(c2[nH]c3cc(F)ccc3c2C[C@H]2C[C@@H](O)CN2C(=O)[C@@H](CC)NC(=O)[C@@H](C)NC)=Nc2cc(F)ccc21
